Assay results: US10435361B2, “Kinase inhibitors” (Topivert Pharma Limited, priority 2013, dated 2019)
pIC50: −log10 of the molar value. Read-outs that look alike come from different tables or passages of the source.

Assays:
Assay type in all cases: cell-based
HT29 cells = assay: IL-1β-induced IL-8 release in HT29 cells; settings: Homo sapiens, HT-29, assay (d), read-out: IC50 Values for Inhibition of Cytokine Release HT29 cells IL-8
Procedure: HT29 cells, a human colon adenocarcinoma cell line, are plated in a 96 well plate (24 hr) and pre-treated with compounds at the desired concentration for 2 hours before addition of 5 ng/mL of IL-1β (Abcam) for 24 hours. Supernatants are harvested for IL-8 quantification by Sandwich ELISA (Duo-set, R&D System). The IC50 is determined from the dose response curve.

PBMCs [1] = assay: LPS-induced TNFα/IL-8 release in PBMC cells; settings: Homo sapiens, assay (b), read-out: IC50 Values for Inhibition of Cytokine Release PBMCs IL-8
In short: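 Healthy-donor PBMCs isolated by density gradient were pretreated with compound for 2 h, then stimulated with 1 ng/mL LPS (E. coli 0111:B4) for 24 h at 37° C., 5% CO2. IL-8 and TNFα in supernatants measured by sandwich ELISA.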

d-U937 cells = assay: LPS-induced TNFα/IL-8 release in d-U937 cells; settings: Homo sapiens, dU937, assay (aa)
Procedure: U937 cells, a human monocytic cell line, are differentiated to macrophage-type cells by incubation with phorbol myristate acetate (PMA; 100 ng/mL) for 48 to 72 hr. Cells are pre-incubated with final concentrations of test compound for 2 hr and are then stimulated with 0.1 μg/mL of LPS (from E. Coli: 0111:B4, Sigma) for 4 hr. The supernatant is collected for determination of TNFα and IL-8 concentrations by sandwich ELISA (Duo-set, R&D systems). […] The relative 50% effective concentration (REC50) is determined from the resultant concentration-response curve. The inhibition of IL-8 production is calculated at each concentration of test compound by comparison with vehicle control.

PBMCs [2] = assay: Cell mitosis assay in PBMCs; settings: Homo sapiens, PBMC, 5 μg/mL
In short: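 Human PBMCs from healthy donors, density-gradient isolated, stimulated with 2% PHA 48 h, then exposed 20 h to test compounds; demecolcine 0.1 μg/mL added 2 h before harvest. Fixed/permeabilised cells stained for phospho-histone H3 and propidium iodide; mitotic lymphocytes counted by flow cytometry.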

PBMCs [3] = assay: IL-2 and IFN gamma release in CD3/CD28 stimulated PBMC cells; settings: Homo sapiens, assay (c)
In short: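 Healthy-donor PBMCs, density-gradient isolated, stimulated on plates pre-coated with anti-CD3 (0.3 μg/mL) and anti-CD28 (3 μg/mL) antibodies, with compound, for 3 days under standard culture conditions. IC50 derived from the dose-response curve.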

[4] = method: relative to 10 μg/mL BIRB796 (REC50), read-out: IC50 Values for Inhibition of Cytokine Release dU937 cells TNFα
[5] = read-out: IC50 Values for Inhibition of Cytokine Release dU937 cells IL-8
[6] = read-out: IC50 Values for Inhibition of Cytokine Release PBMCs IFNγ
[7] = read-out: IC50 Values for Inhibition of Cytokine Release PBMCs IL-2

SMILES	pIC50 (HT29 cells)	pIC50 (d-U937 cells; [4])	pIC50 (d-U937 cells; [5])	pIC50 (PBMCs [1])	inhibition at 5 µg/mL (PBMCs [2]) [%]	pIC50 (PBMCs [3]; [6])	pIC50 (PBMCs [3]; [7])
COc1cc(Nc2nccc(Oc3ccc(NC(=O)Nc4cc(C(C)(C)C)cc(NS(C)(=O)=O)c4OC)c4ccccc34)n2)cc(S(=O)(=O)C2CC2)c1 [Example 5, N-(5-(tert-Butyl)-3-(3-(4-((2-((3-(cyclopropylsulfonyl)-5-methoxyphenyl)amino)pyrimidin-4-yl)oxy)naphthalen-1-yl)ureido)-2-methoxyphenyl)methanesulfonamide]	8.17	9.30	8.85	8.62	44.9	7.99	6.82
COCCOCCOCCOc1cc(Nc2nccc(Oc3ccc(NC(=O)Nc4cc(C(C)(C)C)cc(NS(C)(=O)=O)c4OC)c4ccccc34)n2)cc(OC(F)F)c1 [Example 17, N-(5-(tert-Butyl)-3-(3-(4-((2-((3-(difluoromethoxy)-5-(2-(2-(2-methoxyethoxy)ethoxy)-ethoxy)phenyl)amino)pyrimidin-4-yl)oxy)naphthalen-1-yl)ureido)-2-methoxyphenyl)-methanesulfonamide]	8.29	–	8.85	8.74	37	8.09	7.18
COCCOCCOCCOc1cc(Nc2nccc(Oc3ccc(NC(=O)Nc4cc(C(C)(C)C)cc(NS(C)(=O)=O)c4OC)c(Cl)c3Cl)n2)cc(OC)c1 [Example 10, N-(5-(tert-Butyl)-3-(3-(2,3-dichloro-4-((2-((3-methoxy-5-(2-(2-(2-methoxyethoxy)ethoxy)-ethoxy)phenyl)amino)pyrimidin-4-yl)oxy)phenyl)ureido)-2-methoxyphenyl)-methanesulfonamide]	8.34	9.52	9.10	8.64	70.2	8.36	8.05
COCCOCCOCCOCCOCCOCCOCCOc1cc(Nc2nccc(Oc3ccc(NC(=O)Nc4cc(C(C)(C)C)cc(NS(C)(=O)=O)c4OC)c4ccccc34)n2)cc(OC)c1 [Example 14, N-(3-(3-(4-((2-((3-(2,5,8,11,14,17,20-Heptaoxadocosan-22-yloxy)-5-methoxyphenyl)amino)-pyrimidin-4-yl)oxy)naphthalen-1-yl)ureido)-5-(tert-butyl)-2-methoxyphenyl)-methanesulfonamide]	8.52	9.30	9.22	8.77	49.8	7.71	6.74
COCCOCCOc1cc(Nc2nccc(Oc3ccc(NC(=O)Nc4cc(C(C)(C)C)cc(NS(C)(=O)=O)c4OC)c4ccccc34)n2)cc(OC)c1 [Example 36, N-(5-(tert-Butyl)-2-methoxy-3-(3-(4-((2-((3-methoxy-5-(2-(2-methoxyethoxy)ethoxy)-phenyl)amino)pyrimidin-4-yl)oxy)naphthalen-1-yl)ureido)phenyl)methanesulfonamide]	9.10	–	–	8.74	45	8.24	7.19
C#Cc1cc(Nc2cc(Oc3ccc(NC(=O)Nc4cc(C(C)(C)C)cc(C(N)=O)c4OC)c4ccccc34)ccn2)cc(C(=O)NCCN2CCOCC2)c1 [Example 48, 3-((4-((4-(3-(5-(tert-Butyl)-3-carbamoyl-2-methoxyphenyl)ureido)naphthalen-1-yl)oxy)pyridin-2-yl)amino)-5-ethynyl-N-(2-morpholinoethyl)benzamide]	7.99	–	–	8.47	44.2	7.76	6.84
COCCOCCOCCOc1cc(Nc2cc(Oc3ccc(NC(=O)Nc4cc(C(C)(C)C)cc(NS(C)(=O)=O)c4OC)c4ccccc34)ccn2)cc(OC)c1 [Example 11, N-(5-(tert-Butyl)-2-methoxy-3-(3-(4-((2-((3-methoxy-5-(2-(2-(2-methoxyethoxy)ethoxy)-ethoxy)phenyl)amino)pyridin-4-yl)oxy)naphthalen-1-yl)ureido)phenyl)-methanesulfonamide]	8.03	8.92	8.85	8.59	33.5	7.75	7.13

Second part, led by results:

pIC50 (HT29 cells)	pIC50 (d-U937 cells; [4])	pIC50 (d-U937 cells; [5])	SMILES	pIC50 (PBMCs [1])	inhibition at 5 µg/mL (PBMCs [2]) [%]	pIC50 (PBMCs [3]; [6])	pIC50 (PBMCs [3]; [7])
8.35	–	–	COCCOCCOCCOc1cc(Nc2nccc(Oc3ccc(NC(=O)Nc4cc(C(C)(C)C)cc(S(N)(=O)=O)c4OC)c4ccccc34)n2)cc(OC)c1 [Example 55, 5-(tert-Butyl)-2-methoxy-3-(3-(4-((2-((3-methoxy-5-(2-(2-(2-methoxyethoxy)ethoxy)-ethoxy)phenyl)amino)pyrimidin-4-yl)oxy)naphthalen-1-yl)ureido)benzenesulfonamide]	8.66	54.3	7.92	7.45
8.07	–	–	C#Cc1cc(Nc2cc(Oc3ccc(NC(=O)Nc4cc(C(C)(C)C)cc(NS(C)(=O)=O)c4OC)c4ccccc34)ccn2)cc(C(=O)NCCN2CCOCC2)c1 [Example 49, 3-((4-((4-(3-(5-(tert-Butyl)-2-methoxy-3-(methylsulfonamido)phenyl)ureido)naphthalen-1-yl)oxy)pyridin-2-yl)amino)-5-ethynyl-N-(2-morpholinoethyl)benzamide]	8.60	40.1	7.96	6.64
8.19	–	–	C#Cc1cc(Nc2cc(Oc3ccc(NC(=O)Nc4cc(C(C)(C)C)cc(C(N)=O)c4OC)c4ccccc34)ccn2)cc(C(=O)NCCOCCOCCOC)c1 [Example 53, 3-((4-((4-(3-(5-(tert-Butyl)-3-carbamoyl-2-methoxyphenyl)ureido)naphthalen-1-yl)oxy)pyridin-2-yl)amino)-5-ethynyl-N-(2-(2-(2-methoxyethoxy)ethoxy)ethyl)benzamide]	8.80	30.3	7.83	6.74
7.76	–	–	C#Cc1cc(Nc2cc(Oc3ccc(NC(=O)Nc4cc(C(C)(C)C)cc(NS(C)(=O)=O)c4OC)c4ccccc34)ccn2)cc(C(=O)NCCOCCOC)c1 [Example 52, 3-((4-((4-(3-(5-(tert-Butyl)-2-methoxy-3-(methylsulfonamido)phenyl)ureido)naphthalen-1-yl)oxy)pyridin-2-yl)amino)-5-ethynyl-N-(2-(2-methoxyethoxy)ethyl)benzamide]	8.62	31	7.41	6.69
7.97	–	–	COCCOCCOCCOc1cc(Nc2nccc(Oc3ccc(NC(=O)Nc4cc(C(C)(C)C)cc(NS(C)(=O)=O)c4OC)c4ccccc34)n2)cc(OC)c1Cl [Example 58, N-(5-(tert-Butyl)-3-(3-(4-((2-((4-chloro-3-methoxy-5-(2-(2-(2-methoxyethoxy)ethoxy)ethoxy)-phenyl)amino)pyrimidin-4-yl)oxy)naphthalen-1-yl)ureido)-2-methoxyphenyl)-methanesulfonamide]	8.59	41.7	7.77	6.86
7.67	–	–	C#Cc1cc(Nc2nccc(Oc3ccc(NC(=O)Nc4cc(C(C)(C)C)cc(NS(C)(=O)=O)c4OC)c4ccccc34)n2)cc(C(=O)N[C@@H](C)CN2CCOCC2)c1 [Example 57, (S)-3-((4-((4-(3-(5-(tert-butyl)-2-methoxy-3-(methylsulfonamido)phenyl)ureido)-naphthalen-1-yl)oxy)pyrimidin-2-yl)amino)-5-ethynyl-N-(1-morpholinopropan-2-yl)benzamide]	8.44	42.1	7.13	6.85
